# Laboratory results from patent US11427549B2, “Pyrimidinyloxy benzo-fused compounds as herbicides” (FMC Corporation, priority 2017, dated 2022).
# How the values were obtained:
# [1] = test system: ducksalad (Heteranthera limosa); assay: Test B flooded paddy test, ducksalad; settings: Heteranthera limosa, read-out: Plant response rating, Ducksalad (0 to 100 scale, 0 is no effect, 100 is complete control)
# [2] = test system: barnyardgrass (Echinochloa crus-galli); assay: Test A postemergence, barnyardgrass; type: in vivo; settings: Echinochloa crus-galli, post-emergence, 240 h, 0 to 100 scale (0 no effect, 100 complete control), read-out: Plant response rating, Barnyardgrass
# [3] = test system: ragweed (common ragweed, Ambrosia elatior); assay: Test A preemergence, ragweed; type: in vivo; settings: Ambrosia artemisiifolia, pre-emergence, 240 h, 0 to 100 scale (0 no effect, 100 complete control), read-out: Plant response rating, Ragweed
# [4] = test system: blackgrass (Alopecurus myosuroides); assay: Test A postemergence, blackgrass; type: in vivo; settings: Alopecurus myosuroides, post-emergence, 240 h, 0 to 100 scale (0 no effect, 100 complete control), read-out: Plant response rating, Blackgrass
# [5] = test system: pigweed (Amaranthus retroflexus); assay: Test A postemergence, pigweed; type: in vivo; settings: Amaranthus retroflexus, post-emergence, 240 h, 0 to 100 scale (0 no effect, 100 complete control), read-out: Plant response rating, Pigweed
# [6] = test system: barnyardgrass (Echinochloa crus-galli); assay: Test A preemergence, barnyardgrass; type: in vivo; settings: Echinochloa crus-galli, pre-emergence, 240 h, 0 to 100 scale (0 no effect, 100 complete control), read-out: Plant response rating, Barnyardgrass
# [7] = test system: ragweed (common ragweed, Ambrosia elatior); assay: Test A postemergence, ragweed; type: in vivo; settings: Ambrosia artemisiifolia, post-emergence, 240 h, 0 to 100 scale (0 no effect, 100 complete control), read-out: Plant response rating, Ragweed
# corn (Zea mays) = assay: Test A postemergence, corn; type: in vivo; settings: Zea mays, post-emergence, 240 h, 0 to 100 scale (0 no effect, 100 complete control)
# kochia (Kochia scoparia) [8] = assay: Test A preemergence, kochia; type: in vivo; settings: Bassia scoparia, pre-emergence, 240 h, 0 to 100 scale (0 no effect, 100 complete control), read-out: Plant response rating, Kochia
# [9] = test system: ryegrass, Italian (Italian ryegrass, Lolium multiflorum); assay: Test A preemergence, ryegrass, Italian; type: in vivo; settings: Lolium multiflorum, pre-emergence, 240 h, 0 to 100 scale (0 no effect, 100 complete control), read-out: Plant response rating, Ryegrass, Italian
# rice (Oryza sativa) = assay: Test B flooded paddy test, rice; settings: Oryza sativa, read-out: Plant response rating, Rice (0 to 100 scale, 0 is no effect, 100 is complete control)
# [10] = test system: galium (catchweed bedstraw, Galium aparine); assay: Test A postemergence, galium; type: in vivo; settings: Galium, post-emergence, 240 h, 0 to 100 scale (0 no effect, 100 complete control), read-out: Plant response rating, Galium
# kochia (Kochia scoparia) [11] = assay: Test A postemergence, kochia; type: in vivo; settings: Bassia scoparia, post-emergence, 240 h, 0 to 100 scale (0 no effect, 100 complete control), read-out: Plant response rating, Kochia
# [12] = test system: pigweed (Amaranthus retroflexus); assay: Test A preemergence, pigweed; type: in vivo; settings: Amaranthus retroflexus, pre-emergence, 240 h, 0 to 100 scale (0 no effect, 100 complete control), read-out: Plant response rating, Pigweed
# [13] = test system: barnyardgrass (Echinochloa crus-galli); assay: Test B flooded paddy test, barnyardgrass; settings: Echinochloa crus-galli, read-out: Plant response rating, Barnyardgrass (0 to 100 scale, 0 is no effect, 100 is complete control)
# [14] = test system: foxtail, giant (giant foxtail, Setaria faberii); assay: Test A preemergence, foxtail, giant; type: in vivo; settings: Setaria faberi, pre-emergence, 240 h, 0 to 100 scale (0 no effect, 100 complete control), read-out: Plant response rating, Foxtail, Giant
# [15] = test system: wheat (Triticum aestivum); assay: Test A postemergence, wheat; type: in vivo; settings: Triticum aestivum, post-emergence, 240 h, 0 to 100 scale (0 no effect, 100 complete control), read-out: Plant response rating, Wheat
# [16] = test system: ryegrass, Italian (Italian ryegrass, Lolium multiflorum); assay: Test A postemergence, ryegrass, Italian; type: in vivo; settings: Lolium multiflorum, post-emergence, 240 h, 0 to 100 scale (0 no effect, 100 complete control), read-out: Plant response rating, Ryegrass, Italian
compound,measurement,setting,value
"O=C1OCc2cccc(Oc3ncc(Cl)cn3)c2C1CCCCC(F)(F)F (stereo not drawn) [Compound 34, 5-[(5-Chloro-2-pyrimidinyl)oxy]-1,4-dihydro-4-(5,5,5-trifluoropentyl)-3H-2-benzopyran-3-one]",pest or weed control at 250 g/ha,[1],0%
same,pest or weed control at 31 g/ha,[2]; 31 g ai/ha,0%
same,pest or weed control at 125 g/ha,[2]; 125 g ai/ha,10%
same,pest or weed control at 31 g/ha,[3]; 31 g ai/ha,0%
same,pest or weed control at 125 g/ha,[3]; 125 g ai/ha,0%
same,pest or weed control at 31 g/ha,[4]; 31 g ai/ha,0%
same,pest or weed control at 125 g/ha,[4]; 125 g ai/ha,10%
same,pest or weed control at 31 g/ha,[5]; 31 g ai/ha,10%
same,pest or weed control at 125 g/ha,[5]; 125 g ai/ha,40%
same,pest or weed control at 31 g/ha,[6]; 31 g ai/ha,0%
same,pest or weed control at 125 g/ha,[6]; 125 g ai/ha,0%
same,pest or weed control at 31 g/ha,[7]; 31 g ai/ha,0%
same,pest or weed control at 125 g/ha,[7]; 125 g ai/ha,0%
same,"Corn plant response rating (crop injury, 0 = no effect, 100 = complete kill) at 31 g/ha",corn (Zea mays); 31 g ai/ha,10%
same,"Corn plant response rating (crop injury, 0 = no effect, 100 = complete kill) at 125 g/ha",corn (Zea mays); 125 g ai/ha,20%
same,pest or weed control at 31 g/ha,kochia (Kochia scoparia) [8]; 31 g ai/ha,0%
same,pest or weed control at 125 g/ha,kochia (Kochia scoparia) [8]; 125 g ai/ha,0%
same,pest or weed control at 31 g/ha,[9]; 31 g ai/ha,0%
same,pest or weed control at 125 g/ha,[9]; 125 g ai/ha,0%
same,plant injury at 250 g/ha,rice (Oryza sativa),0%
same,pest or weed control at 31 g/ha,[10]; 31 g ai/ha,20%
same,pest or weed control at 125 g/ha,[10]; 125 g ai/ha,50%
same,pest or weed control at 31 g/ha,kochia (Kochia scoparia) [11]; 31 g ai/ha,20%
same,pest or weed control at 125 g/ha,kochia (Kochia scoparia) [11]; 125 g ai/ha,10%
same,pest or weed control at 31 g/ha,[12]; 31 g ai/ha,0%
same,pest or weed control at 125 g/ha,[12]; 125 g ai/ha,0%
same,pest or weed control at 250 g/ha,[13],0%
same,pest or weed control at 31 g/ha,[14]; 31 g ai/ha,0%
same,pest or weed control at 125 g/ha,[14]; 125 g ai/ha,10%
same,plant injury at 31 g/ha,[15]; 31 g ai/ha,0%
same,plant injury at 125 g/ha,[15]; 125 g ai/ha,10%
same,pest or weed control at 31 g/ha,[16]; 31 g ai/ha,0%
same,pest or weed control at 125 g/ha,[16]; 125 g ai/ha,0%
